In the experiment the test system is Puccinia recondita tritici = Puccinia triticina (PUCCRT). Put plainly: Fungicidal activity vs. leaf rust on wheat plants. Format: in vivo. To be noted: wheat (Yuma) sprayed at 50 ppm, inoculated the following day, rated 7-9 days later, read-out: Puccinia Rating (% Disease Control @ 50 ppm). An excerpt: D. Evaluation of Fungicidal Activity vs. Leaf Rust (Causal Agent Puccinia Recondita Tritici=Puccinia Triticina; Bayer Code PUCCRT)
Each pot contained 3-8 seedlings. These plants were sprayed until wet with the formulated test compounds. The compounds were formulated at 50 ppm in 10 vol. % acetone plus 90 vol. % Triton X water (deionized water 99.99 wt %+0.01 wt % Triton X100), giving a “formulated test compound.” Formulated test compounds were applied to plants using a turn table sprayer fitted with two opposing air atomization nozzles which delivered approximately 1500 L/ha of spray volume. On the following day, the leaves were inoculated with an aqueous spore suspension of Puccinia recondita tritici and the plants were kept in high humidity overnight to permit spores to germinate and infect the leaf. The plants were then transferred to a greenhouse until disease developed on untreated control plants. Disease severity was evaluated 7-9 days later, depending on the speed of disease development.
In each case of Table 3, the Puccinia rating scale is as follows: […]
With `N#Cc1ccc(COc2ccc(C(F)(F)C(O)(Cn3cnnn3)c3ccc(Cl)cc3F)nc2)nc1` (stereo not shown) [Compound 61, 6-(((6-(2-(4-Chloro-2-fluorophenyl)-1,1-difluoro-2-hydroxy-3-(1H-tetrazol-1-yl)propyl)pyridin-3-yl)oxy)methyl)nicotinonitrile], the pest or weed control at 50 ppm lay within 80 to 100%. Regarding `N#Cc1ccc(COc2ccc(C(F)(F)C(O)(Cn3cnnn3)c3ccc(F)cc3F)nc2)cc1F` (stereo not shown) [Compound 10, 4-(((6-(2-(2,4-Difluorophenyl)-1,1-difluoro-2-hydroxy-3-(1H-tetrazol-1-yl)propyl)pyridin-3-yl)oxy)methyl)-2-fluorobenzonitrile], the pest or weed control at 50 ppm was 80 to 100%.

As to `OC(Cn1cnnn1)(c1ccc(F)cc1F)C(F)(F)c1ccc(OCc2cc(F)cc(F)c2)cn1` (stereo not shown) [Compound 35, 1-(5-((3,5-Difluorobenzyl)oxy)pyridin-2-yl)-2-(2,4-difluorophenyl)-1,1-difluoro-3-(1H-tetrazol-1-yl)propan-2-ol], the pest or weed control at 50 ppm was in the range of 80 to 100%. Consider `OC(Cn1cnnn1)(c1ccc(F)cc1F)C(F)(F)c1ccc(Oc2ccc(C(F)(F)F)cn2)cn1` (stereo not shown) [Compound 94, 2-(2,4-difluorophenyl)-1,1-difluoro-3-(1H-tetrazol-1-yl)-1-(5-((5-(trifluoromethyl)pyridin-2-yl)oxy)pyridin-2-yl)propan-2-ol], for which the pest or weed control at 50 ppm was in the range of 80 to 100%. For the compound `N#Cc1ccc(COc2ccc(C(F)(F)C(O)(Cn3cnnn3)c3ccc(F)cc3F)nc2)s1` (stereo not shown) [Compound 73, 5-(((6-(2-(2,4-Difluorophenyl)-1,1-difluoro-2-hydroxy-3-(1H-tetrazol-1-yl)propyl)pyridin-3-yl)oxy)methyl)thiophene-2-carbonitrile], the pest or weed control at 50 ppm is 80 to 100%. With `OC(Cn1cncn1)(c1ccc(F)cc1F)C(F)(F)c1ccc(OCc2cccc(F)c2F)cn1` (stereo not shown) [Compound 45, 1-(5-((2,3-Difluorobenzyl)oxy)pyridin-2-yl)-2-(2,4-difluorophenyl)-1,1-difluoro-3-(1H-1,2,4-triazol-1-yl)propan-2-ol] the figure was 80 to 100%. With `COc1ccc(C(F)(F)C(O)(Cn2cnnn2)c2ccc(F)cc2F)nc1` (stereo not shown) [Compound 8, 2-(2,4-Difluorophenyl)-1,1-difluoro-1-(5-methoxypyridin-2-yl)-3-(1H-tetrazol-1-yl)propan-2-ol], the pest or weed control at 50 ppm is 80 to 100%. In the case of `N#Cc1ccc(C(F)(F)COc2ccc(C(F)(F)C(O)(Cn3cnnn3)c3ccc(F)cc3F)nc2)cc1` (stereo not shown) [Compound 121, 4-(2-((6-(2-(2,4-difluorophenyl)-1,1-difluoro-2-hydroxy-3-(1H-tetrazol-1-yl)propyl)pyridin-3-yl)oxy)-1,1-difluoroethyl)benzonitrile], the pest or weed control at 50 ppm lay within 80 to 100%. Consider `OC(Cn1cnnn1)(c1ccc(Cl)cc1F)C(F)(F)c1ccc(OCC2CC2)cn1` (stereo not shown) [Compound 54, 2-(4-Chloro-2-fluorophenyl)-1-(5-(cyclopropylmethoxy)pyridin-2-yl)-1,1-difluoro-3-(1H-tetrazol-1-yl)propan-2-ol], for which the pest or weed control at 50 ppm was in the range of 80 to 100%. With `OC(Cn1cnnn1)(c1ccc(F)cc1F)C(F)(F)c1ccc(Oc2cccc(F)c2)cn1` (stereo not shown) [Compound 77, 2-(2,4-Difluorophenyl)-1,1-difluoro-1-(5-(3-fluorophenoxy)pyridin-2-yl)-3-(1H-tetrazol-1-yl)propan-2-ol] the figure was 60 to 79%; with `OC(Cn1cnnn1)(c1ccc(F)cc1F)C(F)(F)c1ccc(OCc2ccccn2)cn1` (stereo not shown) [Compound 37, 2-(2,4-Difluorophenyl)-1,1-difluoro-1-(5-(pyridin-2-ylmethoxy)pyridin-2-yl)-3-(1H-tetrazol-1-yl)propan-2-ol], 80 to 100%.

For `N#Cc1cc(COc2ccc(C(F)(F)C(O)(Cn3cnnn3)c3ccc(F)cc3F)nc2)ccc1F` (stereo not shown) [Compound 65, 5-(((6-(2-(2,4-Difluorophenyl)-1,1-difluoro-2-hydroxy-3-(1H-tetrazol-1-yl)propyl)pyridin-3-yl)oxy)methyl)-2-fluorobenzonitrile], the pest or weed control at 50 ppm was 80 to 100%. With `OC(Cn1cnnn1)(c1ccc(F)cc1F)C(F)(F)c1ccc(OCC2CC2)cn1` (stereo not shown) [Compound 39, 1-(5-(Cyclopropylmethoxy)pyridin-2-yl)-2-(2,4-difluorophenyl)-1,1-difluoro-3-(1H-tetrazol-1-yl)propan-2-ol] the figure was 80 to 100%. Take `N#Cc1ccc(COc2ccc(C(F)(F)C(O)(Cn3cnnn3)c3ccc(F)cc3F)nc2)c(F)c1` (stereo not shown) [Compound 57, 4-(((6-(2-(2,4-Difluorophenyl)-1,1-difluoro-2-hydroxy-3-(1H-tetrazol-1-yl)propyl)pyridin-3-yl)oxy)methyl)-3-fluorobenzonitrile]: the pest or weed control at 50 ppm lay in the range of 80 to 100%. Then `OC(Cn1cnnn1)(c1ccc(F)cc1F)C(F)(F)c1ccc(OCc2ccc(Cl)cc2F)cn1` (stereo not shown) [Compound 1, 1-(5-(4-Chloro-2-fluorobenzyloxy)pyridin-2-yl)-2-(2,4-difluorophenyl)-1,1-difluoro-3-(1H-tetrazol-1-yl)propan-2-ol], with 80 to 100%; and `N#Cc1cccc(Oc2ccc(C(F)(F)C(O)(Cn3cnnn3)c3ccc(F)cc3F)nc2)c1` (stereo not shown) [Compound 78, 3-((6-(2-(2,4-Difluorophenyl)-1,1-difluoro-2-hydroxy-3-(1H-tetrazol-1-yl)propyl)pyridin-3-yl)oxy)benzonitrile], with 80 to 100%.

In the case of `N#Cc1ccc(CSc2ccc(C(F)(F)C(O)(Cn3cnnn3)c3ccc(F)cc3F)nc2)c(F)c1` (stereo not shown) [Compound 15, 4-(((6-(2-(2,4-Difluorophenyl)-1,1-difluoro-2-hydroxy-3-(1H-tetrazol-1-yl)propyl)pyridin-3-yl)thio)methyl)-3-fluorobenzonitrile], the pest or weed control at 50 ppm was 40 to 59%.

On to `OC(Cn1cnnn1)(c1ccc(F)cc1F)C(F)(F)c1ccc(Oc2ncc(C(F)(F)F)cn2)cn1` (stereo not shown) [Compound 105, 2-(2,4-difluorophenyl)-1,1-difluoro-3-(1H-tetrazol-1-yl)-1-(5-((5-(trifluoromethyl)pyrimidin-2-yl)oxy)pyridin-2-yl)propan-2-ol], for which the pest or weed control at 50 ppm lay within 80 to 100%. Take `N#Cc1ccc(Oc2ccc(C(F)(F)C(O)(Cn3cnnn3)c3ccc(Cl)cc3F)nc2)cc1F` (stereo not shown) [Compound 81, 4-((6-(2-(4-Chloro-2-fluorophenyl)-1,1-difluoro-2-hydroxy-3-(1H-tetrazol-1-yl)propyl)pyridin-3-yl)oxy)-2-fluorobenzonitrile]: the pest or weed control at 50 ppm lay in the range of 80 to 100%. In the case of `OC(Cn1cnnn1)(c1ccc(F)cc1F)C(F)(F)c1ccc(OCC(F)(F)c2ccccc2)cn1` (stereo not shown) [Compound 119, 1-(5-(2,2-difluoro-2-phenylethoxy)pyridin-2-yl)-2-(2,4-difluorophenyl)-1,1-difluoro-3-(1H-tetrazol-1-yl)propan-2-ol], the pest or weed control at 50 ppm was 80 to 100%.

On to `N#Cc1ccc(Oc2ccc(C(F)(F)C(O)(Cn3cnnn3)c3ccc(Cl)cc3F)nc2)cc1` (stereo not shown) [Compound 79, 4-((6-(2-(4-Chloro-2-fluorophenyl)-1,1-difluoro-2-hydroxy-3-(1H-tetrazol-1-yl)propyl)pyridin-3-yl)oxy)benzonitrile], for which the pest or weed control at 50 ppm lay in the range of 80 to 100%.

For the compound `OC(Cn1cnnn1)(c1ccc(F)cc1F)C(F)(F)c1ccc(Oc2ccc(F)cc2)cn1` (stereo not shown) [Compound 6, 2-(2,4-Difluorophenyl)-1,1-difluoro-1-(5-(4-fluorophenoxy)pyridin-2-yl)-3-(1H-tetrazol-1-yl)propan-2-ol], the pest or weed control at 50 ppm was in the range of 80 to 100%. With `OC(Cn1cnnn1)(c1ccc(F)cc1F)C(F)(F)c1ccc(OCc2ccc(C(F)(F)F)cc2)cn1` (stereo not shown) [Compound 22, 2-(2,4-Difluorophenyl)-1,1-difluoro-3-(1H-tetrazol-1-yl)-1-(5-((4-(trifluoromethyl)benzyl)oxy)pyridin-2-yl)propan-2-ol] the figure was 80 to 100%; with `OC(Cn1cnnn1)(c1ccc(F)cc1F)C(F)(F)c1ccc(Oc2ncccn2)cn1` (stereo not shown) [Compound 97, 2-(2,4-difluorophenyl)-1,1-difluoro-1-(5-(pyrimidin-2-yloxy)pyridin-2-yl)-3-(1H-tetrazol-1-yl)propan-2-ol], 80 to 100%.

Consider `OC(Cn1cnnn1)(c1ccc(F)cc1F)C(F)(F)c1ccc(Oc2ccc(/C=N/OCc3ccccc3)cn2)cn1` (stereo not shown) [Compound 103, (E)-6-((6-(2-(2,4-difluorophenyl)-1,1-difluoro-2-hydroxy-3-(1H-tetrazol-1-yl)propyl)pyridin-3-yl)oxy)nicotinaldehyde O-benzyl oxime], for which the pest or weed control at 50 ppm was 60 to 79%.

As for `CC(C)COc1ccc(C(F)(F)C(O)(Cn2cnnn2)c2ccc(F)cc2F)nc1` (stereo not shown) [Compound 43, 2-(2,4-Difluorophenyl)-1,1-difluoro-1-(5-isobutoxypyridin-2-yl)-3-(1H-tetrazol-1-yl)propan-2-ol], the pest or weed control at 50 ppm was 80 to 100%. Then `OC(Cn1cnnn1)(c1ccc(F)cc1F)C(F)(F)c1ccc(OCc2cccc(F)c2F)cn1` (stereo not shown) [Compound 23, 1-(5-((2,3-Difluorobenzyl)oxy)pyridin-2-yl)-2-(2,4-difluorophenyl)-1,1-difluoro-3-(1H-tetrazol-1-yl)propan-2-ol], with 80 to 100%; and `OC(Cn1cnnn1)(c1ccc(F)cc1F)C(F)(F)c1ccc(OCC(F)(F)c2ccc(OC(F)F)cc2)cn1` (stereo not shown) [Compound 120, 1-(5-(2-(4-(difluoromethoxy)phenyl)-2,2-difluoroethoxy)pyridin-2-yl)-2-(2,4-difluorophenyl)-1,1-difluoro-3-(1H-tetrazol-1-yl)propan-2-ol], with 80 to 100%.
